Test results taken from US20230219957A1, “SMALL MOLECULE CB002-ANALOGES RESTORE THE P53 PATHWAY AND TARGET S-PHASE CHECKPOINT” (Brown University, priority 2020, published 2023).
pIC50: −log10 of the molar value.

What was measured:
Type in all cases: cell-based, human
[1] = test system: colorectal cancer patient-derived organoid; experiment: Cytotoxicity and immunofluorescence in patient-derived organoid; settings: for cleaved caspase-3 staining (apoptotic cells): IC50 doses; for ethidium homodimer staining (dead cells): compared to vehicle control
Method: (§1) CellTiter-Glo® luminescent cell viability assay. Cells were seeded in 96-well plates at a density of 5×10^3 cells per well. 20 μL of CellTiter-Glo® Reagent was added directly to the wells, following the manufacturers protocol. The bioluminescence signal was determined using an IVIS imaging system, optionally at a period of 48-72 hours after treatment.
Immunohistochemistry. 30,000 cells/well were seeded in 8-chamber slides. Cells were washed with phosphate-buffered saline at the harvesting time point and fixed with 4% parafornaldehyde for 25 minutes. Cells were then washed with phosphate-buffered saline and permeabilized with 0.2% Triton X-100 for 5-10 minutes. Cells were then washed with phosphate-buffered saline and incubated overnight 1:100 with the primary antibody Cyt-C (#sc-13560, Santa Cruz Biotechnology, Santa Cruz, Calif., USA), Tom-20 (#42406), commercially available from Cell Signaling Technology, Inc., Danvers, Mass. USA), cells were washed with phosphate-buffered saline and incubated with secondary antibody 1:200 goat-anti mouse Alexa Fluor 488 (#A-11008, Thermo Fisher Scientific, Waltham, Mass., USA) and Cy3 AffiniPure Donkey anti-rabbit (#711-165-152, Jackson ImmunoResearch, West Grove, Pa., USA) for one hour followed by phosphate-buffered saline washing, 1:400 Dapi staining, washed with phosphate-buffered saline, and imaged. Organoid viability imaging was determined by CellTrace™ Calcein Green (#C34852, Thermo Fisher Scientific, Waltham, Mass., USA), Ethidium Homodimer-1 (#E1169, Thermo Fisher Scientific, Waltham, Mass., USA), Ki67 incubated at 37° C. for one hour then washed with phosphate-buffered saline and imaged. Imaging was done using a Leica Confocal Microscope.

HCT116 p53 R273H = experiment: CellTiter-Glo (Cell-Titer glow) cytotoxicity assay; settings: forty-eight hours
Method: as §1
(§2) CB002-analog #4 is a potent anti-tumor agent in vitro and in vivo. The inventors focused on lead CB002-analog #4 and investigated its therapeutic index in vitro and in vivo. The inventors treated an isogenic HCT116 cell line panel with 100 μM CB002 or 25 μM CB002-analog #4 and established IC50 values by the Cell-Titer glow cytotoxicity assay. Across this panel, CB002-analog #4 has a 20-fold to 30-fold range in IC50 values, independently of the HCT116 p53-status.

HCT116 p53−/− = experiment: CellTiter-Glo (Cell-Titer glow) cytotoxicity assay; settings: forty-eight hours
Method: as §1, §2

HCT116 p53+/+ = experiment: CellTiter-Glo (Cell-Titer glow) cytotoxicity assay; settings: forty-eight hours
Method: as §1, §2

SW480 colon cancer cells = experiment: Propidium iodide / BrdU cell cycle analysis of synchronized cells
Method: Cell synchronization. Synchronized cells were synchronized by double thymidine block. Cells were treated with […] thymidine for sixteen hours. The drug was removed and replaced by complete growth media for eight hours. Cells were treated for the second time with […] thymidine for sixteen hours. At this point, cells were treated and harvested.
Propidium iodide and BrdU flow cytometry assay. Cells were seeded at a density of 5×10^5 in a 6-well plate and treated for forty-eight to seventy-two hours. After treatment, floating cells were collected, and adherent cells were trypsinized, pelleted, washed with phosphate-buffered saline, and fixed in 70% ethanol overnight. For propidium iodide (PI) based Sub-G1 apoptosis analysis, cells were spun down after fixation and resuspended in phosphate-citric acid buffer (0.2M Na2HPO4+0.1M Citric Acid, pH 7.8) at room temperature for five minutes. The cell pellet was resuspended for staining with 50 μg/mL PI and 250 μg/mL ribonuclease (RNase A). For BrdU analysis, after cell fixation, cells were spun down and resuspended in one mL of 2N HCL with 0.5% Triton X-100 for thirty minutes at room temperature. Cells were pelleted, washed with phosphate-buffered saline, and resuspended in 20 μL BrdU antibody (BD Biosciences, cat no. 347580) diluted in 0.5% Tween 20/PBS/5% bovine serum albumin for thirty minutes at room temperature. Cells were then spun down and resuspended in 140 μg/mL goat-anti mouse Alexa Fluor 488 (#A-11008, Thermo Fisher Scientific, Waltham, Mass., USA) in 0.5% Tween 20 in phosphate-buffered saline/5% bovine serum albumin for thirty minutes at room temperature. Cells were then spun down and resuspended in 5 μg/mL PI: 250 μg/mL RNase A solution. Samples were analyzed on an Epics Elite Epics flow cytometer (Coulter-Beckman).
BrdU analysis gating. Cell aggregates were gated out in the PI Peak vs DNA PI histogram. BrdU lower limit intensity was set on the upper limit of the negative control. The no BrdU antibody assays and no goat-anti mouse Alexa Fluor 488 antibody assays were the negative controls. […] Gating was held constant throughout the samples within a given assay.

HCT116 p53 R175H = experiment: CellTiter-Glo (Cell-Titer glow) cytotoxicity assay; settings: forty-eight hours
Method: as §1
Overexpression of p53 R175H mutant by lentivirus infection. HCT116 p53^−/− cells, obtained from the Vogelstein Laboratory, Johns Hopkins University, were infected with a lentivirus vector containing the p53 R175H mutant (pLenti6/V5-p53_R175H, Addgene). Cells were selected with blasticidin (8 μg/mL)-containing media cultured for ten days. Blasticidin-resistant clones (pooled clones) were screened for expression of the p53 R175H mutation by Western blot analysis with p53 DO-1 antibody.
as §2

| SMILES | organoid size (calcein staining) [1] | cleaved caspase-3 staining (apoptotic cells) [1] | ethidium homodimer staining (dead cells) [1] | Ki-67 staining (proliferating cells) ([1]; seventy-two hours, dose-dependent) | cytotoxicity (cell viability response curve) ([1]; versus CB002 parent compound) | pIC50 (HCT116 p53 R273H) | pIC50 (HCT116 p53−/−) | pIC50 (HCT116 p53+/+) | S-phase accumulation (SW480 colon cancer cells; eight hours following release from synchronization) | increase of cells in S-phase (SW480 colon cancer cells; twelve hours, PI and BrdU co-staining, compared to DMSO vehicle control) [%] | G2-phase cells versus etoposide (SW480 colon cancer cells; twenty-four hours) | pIC50 (HCT116 p53 R175H) | pIC50 (HCT116 p53 R273H; Homo sapiens, HCT-116) | pIC50 (HCT116 p53−/−; Homo sapiens, HCT-116) | pIC50 (HCT116 p53+/+; Homo sapiens, HCT-116) | S-phase delay, difference (SW480 colon cancer cells; six-eight hours of treatment, combined with etoposide) [fold] | pIC50 (HCT116 p53 R175H; Homo sapiens, HCT-116) |
| --- | --- | --- | --- | --- | --- | --- | --- | --- | --- | --- | --- | --- | --- | --- | --- | --- | --- |
| Cn1c(=O)c2[nH]c(Nc3cccc(C(F)(F)F)c3)nc2n(C)c1=O [CB002-analog #4] | smaller in size | increases apoptotic cells | increase of ethidium homodimer staining | decreases the population of proliferating cells | enhances cytotoxicity compared to the CB002 parent compound | 5.09 | 5.05 | 5.06 | S-phase accumulation | 30 | no significant differences | 5.35 |  |  |  |  |  |
| Cn1c(=O)c2[nH]c(Nc3ccccc3)nc2n(C)c1=O [CB002] |  | increases apoptotic cells | increase of ethidium homodimer staining |  |  |  |  |  |  |  |  |  | 3.85 | 3.79 | 3.62 | 2 | 3.40 |
